Data taken from the OPERA property sets (Mansouri et al. 2018).

conditions: not given

Point of comparison: `CC(Cl)Cl`, boiling point 57.4 °C. Against it:
- FC(F)(F)CCCl — lower, 45.1 °C
- CCCCCCOC(=O)CCCC — higher, 226 °C
- CC1(C)CCCC1 — higher, 87.5 °C
- Cc1cc(C)c(C)c(C)c1 — higher, 198 °C
- Cc1cccc(S)c1 — higher, 195 °C
- Nc1ccc2ccccc2c1 — higher, 300 °C
- Cc1ccccc1NC=O — higher, 288 °C
- C=C1[C@H]2CC[C@@H]3[C@H]2C(C)(C)CCC[C@]13C — higher, 258 °C
- O=S1OCCO1 — higher, 173 °C
- C/C=C(\C)C(=O)OCC — higher, 156 °C
- C1=CCNCC1 — higher, 108 °C
- c1c[nH]cn1 — higher, 257 °C
- CC(C)(C)CN — higher, 82 °C
- CC(=O)CC(=O)c1ccccc1 — higher, 262 °C
- FC(Cl)Cl — lower, 8.9 °C
- Cc1cccc(-c2cccc(C)c2)c1 — higher, 280 °C
- C=CCCCCCCCCCCCCCC — higher, 285 °C
- CCC(CC)C(CC)CC — higher, 164 °C
- CC(Cc1ccccc1)c1ccccc1 (stereo not drawn) — higher, 280 °C
- CCOCCOCCO — higher, 196 °C
- CCCCCC(=O)OC — higher, 150 °C
- C#CC(OC(=O)C1C(C=C(C)C)C1(C)C)/C(C)=C/CC (stereo not drawn) — higher, 296 °C
- c1ccc(C2CCOCO2)cc1 (stereo not drawn) — higher, 247 °C
- CCC(C)C(CC)C(C)C (stereo not drawn) — higher, 162 °C
- CCCCCC(=O)CCCCC — higher, 228 °C
- CC(C)OB(OC(C)C)OC(C)C — higher, 140 °C
- Clc1ccc2ncccc2c1 — higher, 263 °C
- CC[Si](Cl)(Cl)Cl — higher, 100 °C
- Cc1c(C)n(C)c2ccccc12 — higher, 283 °C
- CC1(C)CO1 — lower, 52 °C
- CCCCC(=O)CCC — higher, 163 °C
- O=[N+]([O-])c1cc(Cl)c(Cl)cc1Cl — higher, 288 °C
- Clc1cc(Cl)c2ccccc2n1 — higher, 281 °C

Point of comparison: `CC(Cl)Cl`, log10 Henry constant (atm·m³/mol) -2.25. Against it:
- Nc1ccc2ccccc2c1 — lower, -7.09
- CCCCCC(=O)OC — lower, -3.44
- CCC(C)O (stereo not drawn) — lower, -5.04

Point of comparison: `Clc1c(Cl)c(Cl)c2c(Cl)c(Cl)c(Cl)c(Cl)c2c1Cl`, log10 Koa 11.1. Against it:
- CC(Cl)Cl — lower, 2.41
- CCC(C)O (stereo not drawn) — lower, 3.85

Point of comparison: `CC1=C(C)S(=O)(=O)CCS1(=O)=O`, log10 Koc (L/kg) 0.48. Against it:
- CC(Cl)Cl — higher, 1.48
- CCOC(=O)C(C)Oc1ccc(Oc2cnc3cc(Cl)ccc3n2)cc1 (stereo not drawn) — higher, 2.71
- NC(N)=O — lower, 0.15
- Clc1c(Cl)c(Cl)c2c(Cl)c(Cl)c(Cl)c(Cl)c2c1Cl — higher, 5.89
- c1ccc2c(c1)cc1ccc3cc4ccccc4c4ccc2c1c34 — higher, 5.71
- Cc1cc(C)nc(NC(=O)NS(=O)(=O)c2ccccc2C(=O)O)n1 — higher, 1.8

Point of comparison: `CCC(C)O` (stereo not drawn), log10 vapour pressure (mmHg) 1.26. Against it:
- CC(Cl)Cl — higher, 2.36
- CC1(C)CCCC1 — higher, 1.88
- Cc1cc(C)c(C)c(C)c1 — lower, -0.303
- Cc1cccc(S)c1 — lower, -0.257
- Nc1ccc2ccccc2c1 — lower, -3.59
- CCN(CC)Cc1cccnc1 — lower, -2.37
- CCOC(=O)C(C)Oc1ccc(Oc2cnc3cc(Cl)ccc3n2)cc1 (stereo not drawn) — lower, -8.19
- NC(N)=O — lower, -4.92
- Clc1c(Cl)c(Cl)c2c(Cl)c(Cl)c(Cl)c(Cl)c2c1Cl — lower, -7.96
- Cc1ccc(NC(O)=NC(C)(C)c2ccccc2)cc1 — lower, -8.47
- FC(Cl)Cl — higher, 3.13
- CCN(CC)c1ccc(/N=N/c2ccccc2)cc1 — lower, -7.07
- C=CCCCCCCCCCCCCCC — lower, -2.58
- CN(C)c1ccc(C=O)cc1 — lower, -2.43
- CCOCCOCCO — lower, -0.9
- O=C(O)c1cc(Cl)cc(Cl)c1Cl — lower, -3.51
- CCCCCC(=O)OC — lower, 0.57
- C#CC(OC(=O)C1C(C=C(C)C)C1(C)C)/C(C)=C/CC (stereo not drawn) — lower, -3.98
- CCCCCC(=O)CCCCC — lower, -1.3
- CC(C)OB(OC(C)C)OC(C)C — lower, 0.875
- CC[Si](Cl)(Cl)Cl — higher, 1.67
- CC1=C(C)S(=O)(=O)CCS1(=O)=O — lower, -6.42
- CCCCCCCCSC(=O)Oc1cc(Cl)nnc1-c1ccccc1 — lower, -9.01

Point of comparison: `CC(=O)CC(=O)c1ccccc1`, melting point 56 °C. Against it:
- CC(Cl)Cl — lower, -96.9 °C
- FC(F)(F)CCCl — lower, -106 °C
- CCCCCCOC(=O)CCCC — lower, -63.1 °C
- NC(=O)OCC(O)c1ccccc1 (stereo not drawn) — higher, 112 °C
- CC1(C)CCCC1 — lower, -69.8 °C
- Cc1cc(C)c(C)c(C)c1 — lower, -23.7 °C
- CC(C)(C)C(=O)C=Cc1ccccc1 — lower, 43 °C
- Cc1cccc(S)c1 — lower, -20 °C
- C[C@H](CC(=O)O)[C@H]1CC[C@H]2[C@@H]3CC[C@@H]4CCCC[C@]4(C)[C@H]3CC[C@]12C — higher, 177 °C
- Nc1ccc2ccccc2c1 — higher, 113 °C
- CC(C)CC1Nc2cc(Cl)c(S(N)(=O)=O)cc2S(=O)(=O)N1 (stereo not drawn) — higher, 222 °C
- Cc1ccccc1NC=O — higher, 62 °C
- Sc1ccccn1 — higher, 129 °C
- CCOC(=O)C(C)Oc1ccc(Oc2cnc3cc(Cl)ccc3n2)cc1 (stereo not drawn) — higher, 84.2 °C
- CCCCCCCCCCCCCC(=O)CCCCCCCCCCCCC — higher, 77.5 °C
- Clc1c(Cl)c(Cl)c2c(Cl)c(Cl)c(Cl)c(Cl)c2c1Cl — higher, 198 °C
- O=S1OCCO1 — lower, -11 °C
- O=C1c2ccccc2-c2c(O)cccc21 — higher, 250 °C
- Cc1ccc(NC(O)=NC(C)(C)c2ccccc2)cc1 — higher, 203 °C
- CCCCCC/C=C\CCCCCCCC(=O)O — lower, 0.2 °C
- CC(=O)N[C@@H](CCC(=O)O)C(=O)O — higher, 199 °C
- O=C(O)CS(=O)(=O)CC(=O)O — higher, 182 °C
- C1=CCNCC1 — lower, -48 °C
- c1c[nH]cn1 — higher, 90.5 °C
- COC(=O)c1cc2ccccc2cc1O — higher, 75.5 °C
- COC(=O)C1(S(=O)(=O)c2ccc(Br)cc2)CCCC1 — higher, 104 °C
- CCCCOc1ccc(OCCCC)cc1 — lower, 45.5 °C
- c1ccc2c(c1)cc1ccc3cc4ccccc4c4ccc2c1c34 — higher, 282 °C
- CS(=O)(=O)CCCN=C=S — lower, 47.5 °C
- NNCc1ccccc1 — lower, 26 °C
- FC(Cl)Cl — lower, -135 °C
- CCN(CC)c1ccc(/N=N/c2ccccc2)cc1 — higher, 97.5 °C
- CCCC(=O)NN — lower, 45.5 °C
- Cc1cccc(-c2cccc(C)c2)c1 — lower, 9 °C
- C=CCCCCCCCCCCCCCC — lower, 4.1 °C
- CC(=O)Nc1ccc(S(N)(=O)=O)cc1 — higher, 220 °C
- CCCCCCCCOC(=O)c1cc(O)c(O)c(O)c1 — higher, 102 °C
- C[C@]12CC[C@@H]3c4ccc(O)cc4CC[C@H]3[C@@H]1CCC2=O — higher, 260 °C
- Cc1cn([C@H]2C[C@H](F)[C@@H](CO)O2)c(=O)[nH]c1=O — higher, 177 °C
- CC(Cc1ccccc1)c1ccccc1 (stereo not drawn) — lower, 52 °C
- CN(C)c1ccc(C=O)cc1 — higher, 74.5 °C
- CCOCCOCCO — lower, -76 °C
- O=C(O)c1cc(Cl)cc(Cl)c1Cl — higher, 166 °C
- CCCCC(=O)c1ccc(N)cc1 — higher, 74.5 °C
- CCCCCC(=O)OC — lower, -71 °C
- CCCCCCCC/C=C\CCCCCCCC(=O)OCC(O)CO (stereo not drawn) — lower, 35 °C
- O=C(NCO)NS(=O)(=O)c1ccc(NC(=O)c2ccccc2C(=O)O)cc1 — higher, 162 °C
- N#Cc1ccc(N)c2ccccc12 — higher, 176 °C
- CC(C)(C)c1cccc(C(C)(C)C)n1 — lower, 2.2 °C
- CCCCCCCCCCCCCCCC(N)=O — higher, 107 °C
- CCCCOc1ccc(/N=N/c2ccc(N)nc2N)cn1 — higher, 129 °C
- CCCCCC(=O)CCCCC — lower, 14.5 °C
- COc1cc(O)c2c(=O)c(O)c(-c3ccc(O)c(O)c3)oc2c1 — higher, 295 °C
- Clc1ccc2ncccc2c1 — lower, 43.8 °C
- O=C(Cl)c1cc(C(=O)Cl)cc(C(=O)Cl)c1 — lower, 36.3 °C
- CC[Si](Cl)(Cl)Cl — lower, -106 °C
- Cc1c(C)n(C)c2ccccc12 — lower, 18 °C
- Cc1cc(N(C)C)ccc1N=Nc1ccccc1 — higher, 68 °C
- O=C(O)c1ccccc1C(F)(F)F — higher, 111 °C
- COc1ccc2c(=O)c3ccccc3oc2c1CN1CCCCC1 — higher, 160 °C
- CC(C)(O)CCCC1=CCC(C=O)CC1 (stereo not drawn) — lower, -30 °C
- O=C(CCCN1CCC(O)(c2ccc(Cl)cc2)CC1)c1ccc(F)cc1 — higher, 152 °C
- O=C1CCCCCCN1 — lower, 36.5 °C
- O=[N+]([O-])c1cc(Cl)c(Cl)cc1Cl — higher, 57.5 °C
- Clc1cc(Cl)c2ccccc2n1 — higher, 67.5 °C
- CC1=C(C)S(=O)(=O)CCS1(=O)=O — higher, 165 °C
- CCOC(=O)C1(c2cccc(O)c2)CCN(C)CC1 — higher, 110 °C
- Oc1ccc(C2CCCCC2)cc1Cl — lower, 40.5 °C
- CCCCCCCCSC(=O)Oc1cc(Cl)nnc1-c1ccccc1 — lower, 27 °C

For `CC(Cl)Cl`, the ready biodegradability was “not readily biodegradable”.
In the case of `CC(C)c1ccc(OP(=O)(Oc2ccc(C(C)C)cc2)Oc2ccc(C(C)C)cc2)cc1`, the ready biodegradability is reported as “not readily biodegradable”.
For `Nc1ccc2ccccc2c1`, the ready biodegradability was “readily biodegradable”.
For `NC(N)=O`, the ready biodegradability was “readily biodegradable”.
In the case of `c1c[nH]cn1`, the ready biodegradability is reported as “readily biodegradable”.
In the case of `CC(=O)CC(=O)c1ccccc1`, the ready biodegradability is reported as “readily biodegradable”.
For `C=CCCCCCCCCCCCCCC`, the ready biodegradability was “readily biodegradable”.
With `Cc1ccccc1N=C(N)Nc1ccccc1C` the ready biodegradability was “not readily biodegradable”.
In the case of `CCCCCCCC/C=C\CCCCCCCC(=O)OCC(O)CO` (stereo not drawn), the ready biodegradability is reported as “readily biodegradable”.
For `CCCCCCCCCCCCCCCC(N)=O`, the ready biodegradability was “not readily biodegradable”.
For `CCC(C)O` (stereo not drawn), the ready biodegradability was “readily biodegradable”.
In the case of `CCCCCC(=O)CCCCC`, the ready biodegradability is reported as “readily biodegradable”.
In the case of `CC(C)(O)CCCC1=CCC(C=O)CC1` (stereo not drawn), the ready biodegradability is reported as “readily biodegradable”.

Point of comparison: `c1ccc2c(c1)cc1ccc3cc4ccccc4c4ccc2c1c34`, log10 biodegradation half-life (days) 2.47. Against it:
- CC1(C)CCCC1 — lower, 1.28
- Cc1cc(C)c(C)c(C)c1 — lower, 0.477

same assay, conditions: fish

Point of comparison: `Clc1c(Cl)c(Cl)c2c(Cl)c(Cl)c(Cl)c(Cl)c2c1Cl`, log10 BCF 2.58. Against it:
- O=[N+]([O-])c1cc(Cl)c(Cl)cc1Cl — lower, 1.84

Point of comparison: `O=[N+]([O-])c1cc(Cl)c(Cl)cc1Cl`, log10 biotransformation half-life (days) -0.64. Against it:
- Clc1c(Cl)c(Cl)c2c(Cl)c(Cl)c(Cl)c(Cl)c2c1Cl — higher, 1.62
- C=CCCCCCCCCCCCCCC — higher, 1.67
